Laboratory results published in patent US6806265B2, “Non-nucleoside reverse transcriptase inhibitors” (priority 2002, dated 2004).
Where two headings read alike, the source gives them in different places.

What was measured:
HIV-1 wild type = experiment: microbe, parasite or virus in culture; type: cell-based
[1] = tested on: HIV-1 double mutant K103N/Y181C; experiment: microbe, parasite or virus in culture; type: cell-based
[2] = target: T1, HIV-1 RT double mutant K103N/Y181C (Human immunodeficiency virus type 1 group M subtype B, UniProt P03366, K702N/Y780C); experiment: biochemical
T1 construct: HIV-1 wild type reverse transcriptase as well as the clinically significant double mutant K103N/Y181C
Procedure: (§1) Utilizing the Reverse Transcriptase (RT) Assay described below, compounds were tested for their ability to inhibit the RNA-dependent DNA polymerase activity of HIV-1 RT. Certain specific compounds described in the Examples and in Tables 1-4, were so tested. The results of this testing appear in Table 5 as ranges of IC50 (nM) and EC50 (nM).
(§2) Reverse Transcriptase (RT) Assays

[3] = target: T2, HIV-1 wild type reverse transcriptase (Human immunodeficiency virus type 1 group M subtype B, UniProt P03366); experiment: biochemical
T2 construct: HIV-1 wild type reverse transcriptase
Procedure: as §1, §2

[4] = Human immunodeficiency virus 1, read-out: EC50 WT RT (nM)
[5] = Human immunodeficiency virus 1, read-out: EC50 K103N/Y181C (nM)
[6] = wild type RT, read-out: IC50 WT RT
[7] = wild type, read-out: EC50 WT RT
[8] = double mutant K103N/Y181C, read-out: EC50 K103N/Y181C
[9] = RT double mutant K103N/Y181C, read-out: IC50 K103N/Y181C
[10] = Human immunodeficiency virus 1, wild type, read-out: EC50 WT RT

Compound	EC50 [1, 5] [nM]	IC50 [2] [nM]	IC50 [3, 6] [nM]	EC50 [1, 8] [nM]	IC50 [2, 9] [nM]	also measured
CCN1c2ncc(CCOc3ccc(NC(=O)Nc4ccc(C(=O)O)cc4)cc3C)cc2C(=O)N(C)c2cccnc21 [Entry 3031]	> 50	< 50	< 50	–	–	EC50 (HIV-1 wild type; [4]): 10 to 50 nM
CCN1c2ncc(CCOc3ccc(-c4ccc(C(=O)O)cc4)c(C)c3)cc2C(=O)N(C)c2cccnc21 [Entry 1005]	–	–	< 50	> 50	> 100	EC50 (HIV-1 wild type; [7]): 10 to 50 nM
CCN1c2ncc(CCOc3ccc(C(=O)NS(=O)(=O)c4ccccc4)cc3C)cc2C(=O)N(C)c2cccnc21 [Entry 3009]	> 50	> 100	< 50	–	–	EC50 (HIV-1 wild type; [4]): 10 to 50 nM
CCN1c2ncc(CCOc3ccc(-c4csc(N)n4)cc3C)cc2C(=O)N(C)c2cccnc21 [Entry 1093, 8-{2-[4-(2-Amino-4-thiazolyl)-2-methylphenoxy]ethyl}-11-ethyl-5,11-dihydro-5-methyl-6H-dipyrido[3,2-b:2′,3′-e][1,4]diazepin-6-one]	< 10	< 50	< 50	–	–	EC50 (HIV-1 wild type; [10]): < 10 nM
CCN1c2ncc(CCOc3ccc(C(=O)NCC(CC)(CC)C(=O)O)cc3C)cc2C(=O)N(C)c2cccnc21 [Entry 4014]	10 to 50	< 50	< 50	–	–	EC50 (HIV-1 wild type; [10]): < 10 nM
CCN1c2ncc(CCOc3ccc(-c4ccc(CC(=O)O)cc4)cc3C)cc2C(=O)Nc2c(C)ccnc21 [Entry 1009]	–	–	< 50	–	< 50	EC50 (HIV-1 wild type; [7]): 10 to 50 nM
CCN1c2ncc(CCOc3ccc(NC(=O)NCC(=O)O)cc3C)cc2C(=O)N(C)c2cccnc21 [Entry 4004]	–	> 100	< 50	–	–	EC50 (HIV-1 wild type; [10]): 10 to 50 nM
CCN1c2ncc(CCOc3ccc(-c4cc(C(=O)O)c(C)o4)cc3)cc2C(=O)N(C)c2cccnc21 [Entry 1047, 5-{4-[2-(11-Ethyl-6,11-dihydro-5-methyl-6-oxo-5H-dipyrido[3,2-b:2′,3′-e][1,4]diazepin-8-yl)ethoxy]phenyl}-2-methyl-3-furanecarboxylic acid]	> 50	> 100	< 50	–	–	EC50 (HIV-1 wild type; [10]): 10 to 50 nM
CCN1c2ncc(CCOc3ccc(C(=O)Nc4cccn(CC(=O)O)c4=O)cc3C)cc2C(=O)N(C)c2cccnc21 [Entry 3012]	> 50	50 to 100	< 50	–	–	EC50 (HIV-1 wild type; [10]): > 50 nM
CCN1c2ncc(CCOc3ccc(C(=O)Nc4cccnc4O)cc3C)cc2C(=O)N(C)c2cccnc21 [Entry 3021]	< 10	< 50	< 50	–	–	EC50 (HIV-1 wild type; [10]): < 10 nM
CCN1c2ncc(CCOc3ccc(-c4ccc(CC(=O)O)cc4)cc3CO)cc2C(=O)N(C)c2cccnc21 [Entry 1104]	–	–	< 50	10 to 50	< 50	EC50 (HIV-1 wild type; [7]): < 10 nM
CCN1c2ncc(CCOc3ccc(NC(=O)CC4(C(=O)O)CCCC4)cc3C)cc2C(=O)N(C)c2cccnc21 [Entry 4007]	< 10	> 100	< 50	–	–	EC50 (HIV-1 wild type; [10]): < 10 nM
CCN1c2ncc(CCOc3ccc(S(=O)(=O)c4ccc(C(=O)O)cc4)cc3C)cc2C(=O)N(C)c2cccnc21 [Entry 3028]	> 50	< 50	< 50	–	–	–
CCN1c2ncc(CCOc3ccc(-c4cccc(CC(=O)O)c4)cc3)cc2C(=O)N(C)c2cccnc21 [Entry 1014]	–	–	< 50	10 to 50	> 100	EC50 (HIV-1 wild type; [7]): < 10 nM
CCN1c2ncc(CCOc3ccc(C(=O)Nc4ccccc4C(=O)O)cc3C)cc2C(=O)N(C)c2cccnc21 [Entry 3011]	> 50	> 100	< 50	–	–	EC50 (HIV-1 wild type; [4]): 10 to 50 nM
CCN1c2ncc(CCOc3ccc(-c4c[nH]cn4)cc3C)cc2C(=O)N(C)c2cccnc21 [Entry 1094, 11-Ethyl-5,11-dihydro-8-{2-[4-(1H-imidazol-4-yl)-2-methylphenoxy]ethyl}-5-methyl-6H-dipyrido[3,2-b:2′,3′-e][1,4]diazepin-6-one]	< 10	< 50	< 50	–	–	EC50 (HIV-1 wild type; [10]): < 10 nM
CCN1c2ncc(CCOc3ccc(-c4ccccc4)cc3)cc2C(=O)N(C)c2cccnc21 [Entry 1101]	–	–	< 50	> 50	50 to 100	EC50 (HIV-1 wild type; [7]): < 10 nM
CCN1c2ncc(CCOc3ccc(-c4ccc(C(=O)O)cc4)cc3)cc2C(=O)N(C)c2cccnc21 [Entry 1001]	–	–	< 50	> 50	50 to 100	EC50 (HIV-1 wild type; [7]): < 10 nM
CCN1c2ncc(CCOc3ccc(-c4ncc[nH]4)cc3C)cc2C(=O)N(C)c2cccnc21 [Entry 1096, 11-Ethyl-5,11-dihydro-8-{2-[4-(1H-imidazol-2-yl)-2-methylphenoxy]ethyl}-5-methyl-6H-dipyrido[3,2-b:2′,3′-e][1,4]diazepin-6-one]	< 10	< 50	< 50	–	–	–
CCN1c2ncc(CCOc3ccc(-c4ccc(C(=O)O)cc4)cc3)cc2C(=O)N(C)c2ccc(Cl)nc21 [Entry 1002]	–	–	< 50	–	< 50	EC50 (HIV-1 wild type; [7]): < 10 nM
CCN1c2ncc(CCOc3ccc(-c4ccc(Cl)c(C(=O)O)c4)cc3C)cc2C(=O)N(C)c2cccnc21 [Entry 1032]	–	–	< 50	10 to 50	50 to 100	–

Compound	EC50 [1, 5] [nM]	IC50 [2] [nM]	IC50 [3, 6] [nM]	EC50 [1, 8] [nM]	IC50 [2, 9] [nM]	also measured
CCN1c2ncc(CCOc3ccc(-c4cc(C(=O)O)ccc4C)cc3C)cc2C(=O)N(C)c2cccnc21 [Entry 1028]	–	–	< 50	10 to 50	> 100	–
CCN1c2ncc(CCOc3ccc(Nc4ccc(C(=O)O)cn4)cc3C)cc2C(=O)N(C)c2cccnc21 [Entry 3025]	10 to 50	< 50	–	–	–	–
CCN1c2ncc(CCOc3ccc(-c4nccn4C)cc3C)cc2C(=O)N(C)c2cccnc21 [Entry 1097, 11-Ethyl-5,11-dihydro-5-methyl-8-{2-[2-methyl-4-(1-methyl-1H-imidazol-2-yl)phenoxy]ethyl}-6H-dipyrido[3,2-b:2′,3′-e][1,4]diazepin-6-one]	10 to 50	50 to 100	< 50	–	–	–
CCN1c2ncc(CCOc3ccc(Nc4nc(C(=O)O)cs4)cc3C)cc2C(=O)N(C)c2cccnc21 [Entry 3026]	10 to 50	50 to 100	–	–	–	EC50 (HIV-1 wild type; [10]): < 10 nM
CCN1c2ncc(CCOc3ccc(C(=O)NNCC(=O)O)cc3C)cc2C(=O)N(C)c2cccnc21 [Entry 4015]	–	> 100	< 50	–	–	EC50 (HIV-1 wild type; [10]): 10 to 50 nM
CCN1c2ncc(CCOc3ccc(-c4ccc(C)nc4)cc3C)cc2C(=O)N(C)c2cccnc21 [Entry 1072]	–	–	–	< 10	< 50	–
CCN1c2ncc(CCOc3ccc(-c4ccc(CC(=O)O)cc4OC)cc3C)cc2C(=O)N(C)c2cccnc21 [Entry 1026]	–	–	< 50	10 to 50	< 50	–
CCN1c2ncc(CCOc3ccc(-c4ccc(O)c(C(=O)O)c4)cc3C)cc2C(=O)N(C)c2cccnc21 [Entry 1033]	–	–	< 50	> 50	50 to 100	–
CCN1c2ncc(CCOc3ccc(-c4cc(CC(=O)O)ccc4C)cc3C)cc2C(=O)N(C)c2cccnc21 [Entry 1036]	–	–	< 50	10 to 50	50 to 100	–
CCN1c2ncc(CCOc3ccc(S(=O)(=O)c4cccc(CC(=O)O)c4)cc3C)cc2C(=O)N(C)c2cccnc21 [Entry 3029]	> 50	< 50	–	–	–	–
CCN1c2ncc(CCOc3ccc(-c4cccnc4)cc3C)cc2C(=O)N(C)c2cccnc21 [Entry 1067]	–	–	–	< 10	< 50	IC50 ([3]; read-out: IC50 WT RT): < 50 nM
CCN1c2ncc(CCOc3ccc(-c4ccc(C(C)C(=O)O)cc4)cc3C)cc2C(=O)N(C)c2cccnc21 (stereo not drawn) [Entry 1010]	–	–	< 50	10 to 50	< 50	–
CCN1c2ncc(CCOc3ccc(C(=O)N(C)c4ccc(C(=O)O)cc4)cc3C)cc2C(=O)N(C)c2cccnc21 [Entry 3016]	10 to 50	50 to 100	< 50	–	–	–
CCN1c2ncc(CCOc3ccc(-c4cc(CC(=O)O)ccc4OC)cc3C)cc2C(=O)N(C)c2cccnc21 [Entry 1037]	–	–	< 50	10 to 50	50 to 100	–
CCN1c2ncccc2NC(=O)c2cc(CCOc3ccc(-c4ccc[n+]([O-])c4)cc3C)cnc21 [Entry 1100]	–	–	< 50	10 to 50	–	EC50 (HIV-1 wild type; [7]): < 10 nM
CCN1c2ncc(CCOc3ccc(C(=O)N4CCC(C(=O)O)CC4)cc3C)cc2C(=O)N(C)c2cccnc21 [Entry 3008]	–	50 to 100	< 50	–	–	EC50 (HIV-1 wild type; [10]): 10 to 50 nM
CCN1c2ncc(CCOc3ccc(-c4ccc(Cl)c(CC(=O)O)c4)cc3C)cc2C(=O)N(C)c2cccnc21 [Entry 1038]	–	–	< 50	10 to 50	< 50	–
CCN1c2ncc(CCOc3ccc(NC(=O)/C=C/C(=O)O)cc3C)cc2C(=O)N(C)c2cccnc21 [Entry 4010]	–	50 to 100	< 50	–	–	EC50 (HIV-1 wild type; [10]): > 50 nM
CCN1c2ncc(CCOc3ccc(C(=O)Nc4ccc(C(=O)O)cn4)cc3C)cc2C(=O)N(C)c2cccnc21 [Entry 3014]	10 to 50	< 50	–	–	–	IC50 [3]: < 50 nM
CCN1c2ncc(CCOc3ccc(-c4ccc(CC(=O)O)cc4F)cc3C)cc2C(=O)N(C)c2cccnc21 [Entry 1024]	–	–	< 50	10 to 50	< 50	–
CCN1c2ncc(CCOc3ccc(-c4ccc(CC(=O)O)c(C)c4)cc3C)cc2C(=O)N(C)c2cccnc21 [Entry 1021]	–	–	< 50	10 to 50	< 50	–
